Drawing on US8003658B2, “Quinazoline derivatives for inhibiting cancer cell growth and method for the preparation thereof” (Hanmi Holdings Co., Ltd., priority 2004, dated 2011), this text covers IC50 for 27 compounds.

One assay has as its system SK-Br3 (ATCC: HTB-30). Put plainly: Test of cancer cell growth inhibition (SRB), SK-Br3. As to conditions: read-out: IC50 SK-Br-3.
The test system of the next assay is A431 (ATCC: CRL-1555). Put plainly: Test of cancer cell growth inhibition (SRB), A431. As to conditions: read-out: IC50 A431.
Where [1] appears, read: EGFR overexpressed A431, 72 hours, SRB.
Where [2] appears, read: Erb-B2 overexpressed SK-Br3, 72 hours, SRB.

Read-outs that look alike come from different tables or passages of the source.

Usually IC50 stands for the point on the concentration scale where inhibition reaches its midpoint. Take `C=CC(=O)N1CSC[C@H]1C(=O)Nc1cc2c(Nc3ccc(OCc4ccccn4)c(Cl)c3)ncnc2cc1OC` [Example 180, (4R)-3-acryloyl-thiazolidin-4-carboxylic acid {4-[3-chloro-4-(pyridin-2-ylmethoxy)-phenylamino]-7-methoxy-quinazolin-6-yl}-amide]: the IC50 in the assay on SK-Br3 (ATCC: HTB-30) (Homo sapiens, SK-BR-3, 72 h) amounted to 0.063 µM; in the assay on A431 (ATCC: CRL-1555) (Homo sapiens, A-431, 72 h), 0.438 µM.
In the same order, the values of `C=CC(=O)N1CCC[C@H]1C(=O)Nc1ccc2ncnc(Nc3ccc(Oc4ccc(C)nc4)c(C)c3)c2c1` [Example 157, (2S)-1-acryloyl-pyrrolidine-2-carboxylic acid {4-[3-methyl-4-(6-methyl-pyridin-3-yloxy)-phenylamino]-quinazolin-6-yl}-amide] are 0.123 µM and 5.59 µM.
In the same order, the values of `C=CC(=O)N[C@H](C(=O)Nc1ccc2ncnc(Nc3ccc(OCc4ccccn4)c(Cl)c3)c2c1)C(C)C` [Example 224, (2S)-2-acryloylamino-N-{4-[3-chloro-4-(pyridin-2-ylmethoxy)-phenylamino]-quinazolin-6-yl}-3-methyl-butyramide] are 0.012 µM and 0.049 µM.
In the same order, the values of `O=C(CCNC(=O)OCc1ccccc1)Nc1ccc2ncnc(Nc3ccc(OCc4cccc(F)c4)c(Cl)c3)c2c1` [Example 128, (2-{4-[3-chloro-4-(3-fluoro-benzyloxy)-phenylamino]-quinazolin-6-ylcarbamoyl}-ethyl)-carbamic acid benzylester] are 0.585 µM and 0.489 µM.
As for `C=CC(=O)NCCC(=O)N(CC)c1ccc2ncnc(Nc3ccc(OCc4cccc(F)c4)c(Cl)c3)c2c1` [Example 140, N-[2-({4-[3-chloro-4-(3-fluoro-benzyloxy)-phenylamino]-quinazolin-6-yl}-ethyl-carbamoyl)-ethyl]-acrylamide], the IC50 turned out to be 0.102 µM in the assay with SK-Br3 (ATCC: HTB-30) (Homo sapiens, SK-BR-3, 72 h) and 0.102 µM in the assay with A431 (ATCC: CRL-1555) (Homo sapiens, A-431, 72 h).
For the compound `C=CC(=O)N1CCC1C(=O)Nc1ccc2ncnc(Nc3ccc(OCc4ccccn4)c(Cl)c3)c2c1` (stereo not drawn) [Example 181, 1-acryloyl-azetidine-2-carboxylic acid {4-[3-chloro-4-(pyridin-2-ylmethoxy)-phenylamino]-quinazolin-6-yl}-amide], the 50% inhibitory concentration (IC50) in the assay with SK-Br3 (ATCC: HTB-30) (Homo sapiens, SK-BR-3, 72 h) worked out at 0.013 µM; in the assay on A431 (ATCC: CRL-1555) (setting [1]) it was 0.218 µM.
Take `C=CC(=O)N1CCC[C@H]1C(=O)Nc1cc2c(Nc3ccc(OCc4ccccn4)c(Cl)c3)ncnc2cc1OC1CCCC1` [Example 173, (2S)-1-acryloyl-pyrrolidine-2-carboxylic acid {4-[3-chloro-4-(pyridin-2-ylmethoxy)-phenylamino]-7-cyclopentyloxy-quinazolin-6-yl}-amide]: the IC50 with SK-Br3 (ATCC: HTB-30) (Homo sapiens, SK-BR-3, 72 h) was 0.029 µM; in the assay on A431 (ATCC: CRL-1555) (Homo sapiens, A-431, 72 h), 0.552 µM.
For `C=CC(=O)N1CCC(C(=O)Nc2cc3c(Nc4ccc(OCc5ccccn5)c(Cl)c4)ncnc3cc2OC)CC1` [Example 197, 1-acryloyl-piperidine-4-carboxylic acid {4-[3-chloro-4-(pyridin-2-ylmethoxy)-phenylamino]-7-methoxy-quinazolin-6-yl}-amide] the same measures were 0.196 µM and 0.259 µM.
In the same order, the values of `CCOC(=O)C(=O)NCCCC(=O)Nc1ccc2ncnc(Nc3ccc(OCc4cccc(F)c4)c(Cl)c3)c2c1` [Example 91, N-(3-{4-[3-chloro-4-(3-fluoro-benzyloxy)-phenylamino]-quinazolin-6-ylcarbamoyl}-propyl)-oxalamic acid ethylester] are 0.445 µM and 0.603 µM.
In the same order, the values of `C=CC(=O)N1CCC[C@H]1C(=O)Nc1cc2c(Nc3ccc(OCc4ccccn4)c(Cl)c3)ncnc2cc1OCC` [Example 170, (2S)-1-acryloyl-pyrrolidine-2-carboxylic acid {4-[3-chloro-4-(pyridin-2-ylmethoxy)-phenylamino]-7-ethoxy-quinazolin-6-yl}-amide] are 0.002 µM and 0.199 µM.
On to `CC(CNC(=O)CS(C)(=O)=O)C(=O)Nc1ccc2ncnc(Nc3ccc(OCc4cccc(F)c4)c(Cl)c3)c2c1` (stereo not drawn) [Example 43, N-{4-[3-chloro-4-(3-fluoro-benzyloxy)-phenylamino]-quinazolin-6-yl}-3-(2-methanesulfonyl-acetylamino)-2-methyl-propionamide], for which the IC50 came to 0.115 µM with SK-Br3 (ATCC: HTB-30) (Homo sapiens, SK-BR-3, 72 h) and 0.39 µM in the assay on A431 (ATCC: CRL-1555) (Homo sapiens, A-431, 72 h).
In the same order, the values of `CC(C)(C)OC(=O)NCC(=O)Nc1ccc2ncnc(Nc3ccc(OCc4cccc(F)c4)c(Cl)c3)c2c1` [Example 1-5, ({4-[3-chloro-4-(3-fluoro-benzyloxy)-phenylamino]-quinazolin-6-ylcarbamoyl}-methyl)-carbamic acid t-butylester] are 0.359 µM and 0.408 µM.
For `CS(=O)(=O)CC(=O)NCCC(=O)Nc1ccc2ncnc(Nc3ccc(OCc4cccnc4)c(Cl)c3)c2c1` [Example 133, N-{4-[3-chloro-4-(pyridin-3-ylmethoxy)-phenylamino]-quinazolin-6-yl}-3-(2-methanesulfonyl-acetylamino)-propionamide] the same measures were 1.11 µM and 7.26 µM.
For `C=CC(=O)N1CCC[C@H]1C(=O)Nc1cc2c(Nc3ccc(OCc4cccnc4)c(Cl)c3)ncnc2cc1OCCCN1CCOCC1` [Example 209, (2S)-1-acryloyl-pyrrolidine-2-carboxylic acid {4-[3-chloro-4-(pyridin-3-ylmethoxy)-phenylamino]-7-(3-morpholin-4-yl-propoxy)-quinazolin-6-yl}-amide] the same measures were 0.003 µM and 0.044 µM.
Take `Cc1oncc1C(=O)NCCC(=O)Nc1ccc2ncnc(Nc3ccc(OCc4cccc(F)c4)c(Cl)c3)c2c1` [Example 136]: the IC50 in the assay with SK-Br3 (ATCC: HTB-30) (setting [2]) was determined as 1.71 µM; in the assay on A431 (ATCC: CRL-1555) (setting [1]), 0.828 µM.
With `C=CC(=O)N1CC(C(=O)Nc2ccc3ncnc(Nc4ccc(OCc5ccccn5)c(Cl)c4)c3c2)C1` [Example 163, 1-acryloyl-azetidine-3-carboxylic acid {4-[3-chloro-4-(pyridin-2-ylmethoxy)-phenylamino]-quinazolin-6-yl}-amide], the IC50 with SK-Br3 (ATCC: HTB-30) (Homo sapiens, SK-BR-3, 72 h) amounted to 0.06 µM; with A431 (ATCC: CRL-1555) (setting [1]), 1.4 µM.
In the case of `O=C(C=CCN1CCOCC1)NCCC(=O)Nc1ccc2ncnc(Nc3ccc(OCc4cccc(F)c4)c(Cl)c3)c2c1` [Example 57, 4-morpholin-4-yl-but-2-enonylic acid (2-{4-[3-chloro-4-(3-fluoro-benzyloxy)-phenylamino]-quinazolin-6-ylcarbamoyl}-ethyl)-amide], the IC50 in the assay with SK-Br3 (ATCC: HTB-30) (setting [2]) came to 0.043 µM; in the assay with A431 (ATCC: CRL-1555) (setting [1]), 0.625 µM.
Take `CN(C)CCOCC(=O)NCCC(=O)Nc1ccc2ncnc(Nc3ccc(OCc4cccc(F)c4)c(Cl)c3)c2c1` [Example 122, N-{4-[3-chloro-4-(3-fluoro-benzyloxy)-phenylamino]-quinazolin-6-yl}-3-[2-(2-dimethylamino-ethoxy)-acetylamino]-propionamide]: the IC50 worked out at 0.085 µM in the assay with SK-Br3 (ATCC: HTB-30) (Homo sapiens, SK-BR-3, 72 h) and 0.617 µM with A431 (ATCC: CRL-1555) (Homo sapiens, A-431, 72 h).
For “(2S)-2-acryloylamino-N-{4-[3-chloro-4-(3-fluoro-benzyloxy)-phenylamino]-7-(2-methoxyethoxy)-quinazolin-6-yl}-4-methylsulfanyl-butyramide [Example 222]”, the IC50 worked out at 0.009 µM in the assay with SK-Br3 (ATCC: HTB-30) (setting [2]) and 0.025 µM in the assay with A431 (ATCC: CRL-1555) (setting [1]).
Regarding `C=CC(=O)N1C[C@H](OC)C[C@H]1C(=O)Nc1ccc2ncnc(Nc3ccc(OCc4ccccn4)c(Cl)c3)c2c1` [Example 161, (2S,4R)-1-acryloyl-4-methoxy-pyrrolidine-2-carboxylic acid {4-[3-chloro-4-(pyridin-2-ylmethoxy)-phenylamino]-quinazolin-6-yl}-amide], the IC50 with SK-Br3 (ATCC: HTB-30) (Homo sapiens, SK-BR-3, 72 h) was 0.019 µM; in the assay on A431 (ATCC: CRL-1555) (Homo sapiens, A-431, 72 h), 0.68 µM.
For `C=CC(=O)NCC(F)C(=O)Nc1cc2c(Nc3ccc(OCc4ccccn4)c(Cl)c3)ncnc2cc1OC` (stereo not drawn) [Example 206, N-(2-{4-[3-chloro-4-(pyridin-2-ylmethoxy)-phenylamino]-7-methoxy-quinazolin-6-ylcarbamoyl}-2-fluoro-ethyl)-acrylamide] the same measures were 0.01 µM and 0.017 µM.
With “(2S)-2-acryloylamino-N-{4-[3-chloro-4-(3-fluoro-benzyloxy)-phenylamino]-7-methoxy-quinazolin-6-yl}-4-methylsulfanyl-butyramide [Example 221]”, the IC50 in the assay with SK-Br3 (ATCC: HTB-30) (setting [2]) is 0.023 µM; in the assay on A431 (ATCC: CRL-1555) (setting [1]), 0.028 µM.
For the compound `C=CC(=O)N1CCC[C@H]1C(=O)Nc1cc2c(Nc3ccc(OCc4ccccn4)c(Cl)c3)ncnc2cc1F` [Example 165, (2S)-1-acryloyl-pyrrolidine-2-carboxylic acid {4-[3-chloro-4-(pyridin-2-ylmethoxy)-phenylamino]-7-fluoro-quinazolin-6-yl}-amide], the IC50 in the assay on SK-Br3 (ATCC: HTB-30) (Homo sapiens, SK-BR-3, 72 h) is 0.005 µM; in the assay with A431 (ATCC: CRL-1555) (Homo sapiens, A-431, 72 h), 0.215 µM.
Take `O=C(CCc1ccccc1)NCCC(=O)Nc1ccc2ncnc(Nc3ccc(OCc4cccc(F)c4)c(Cl)c3)c2c1` [Example 23, 3-phenyl-propionylic acid (2-{4-[3-chloro-4-(3-fluoro-benzyloxy)-phenylamino]-quinazolin-6-ylcarbamoyl}-ethyl)-amide]: the IC50 in the assay with SK-Br3 (ATCC: HTB-30) (setting [2]) came to 0.359 µM; with A431 (ATCC: CRL-1555) (setting [1]) it was 0.316 µM.
Turning to `COCCOCC(=O)NCCC(=O)Nc1ccc2ncnc(Nc3ccc(OCc4cccc(F)c4)c(Cl)c3)c2c1` [Example 135, N-{4-[3-chloro-4-(3-fluoro-benzyloxy)-phenylamino]-quinazolin-6-yl}-3-[2-(2-methoxy-ethoxy)-acetylamino]-propionamide], the IC50 in the assay on SK-Br3 (ATCC: HTB-30) (Homo sapiens, SK-BR-3, 72 h) came to 0.092 µM; in the assay on A431 (ATCC: CRL-1555) (Homo sapiens, A-431, 72 h), 0.123 µM.
Regarding `C=CC(=O)N1CCC1C(=O)Nc1cc2c(Nc3ccc(OCc4ccccn4)c(Cl)c3)ncnc2cc1OC` (stereo not drawn) [Example 182, 1-acryloyl-azetidine-2-carboxylic acid {4-[3-chloro-4-(pyridin-2-ylmethoxy)-phenylamino]-7-methoxy-quinazolin-6-yl}-amide], the IC50 worked out at 0.009 µM with SK-Br3 (ATCC: HTB-30) (Homo sapiens, SK-BR-3, 72 h) and 0.128 µM in the assay with A431 (ATCC: CRL-1555) (Homo sapiens, A-431, 72 h).
In the same order, the values of `C=CC(=O)N1CCCC1CC(=O)Nc1ccc2ncnc(Nc3ccc(OCc4ccccn4)c(Cl)c3)c2c1` (stereo not drawn) [Example 154, 2-(1-acryloyl-pyrrolidin-2-yl)-N-{4-[3-chloro-4-(pyridin-2-ylmethoxy)-phenylamino]-quinazolin-6-yl}-acetamide] are 0.005 µM and 0.086 µM.
